From patent US20090143328A1, “Method of Treating Cancer by Administration of Topical Active Corticosteroids” (priority 2001, published 2009)

Assays:
Assay type in all cases: in vivo, human
[1] = system: graft versus host disease (GVHD); assay: Randomized, double blind, placebo controlled trial of oral BDP: time to treatment failure (GVHD) through study days 50 and 80
Procedure: (§1) A randomized, prospective, double blind, placebo controlled, multi-center pivotal trial was conducted to evaluate beclomethasone dipropionate (BDP) as a treatment of cancer by enhancing the graft versus leukemia effect (GVL) while controlling graft versus host disease (GVHD) following hematopoietic stem cell transplant in blood-borne cancer patients. The trial was divided into two phases, the purpose was to monitor short term effectiveness of BDP to control graft versus host disease in the first phase and the second phase was to assess the effect of the drug treatment on long term survival due to recurrence of hematologic malignancy or other causes of death.
(§2) To minimize the exposure of patients to long term exposure to systemic corticosteroids (prednisone or prednisolone), which are used as the standard of care to prevent or treat symptoms of graft versus host disease in conjunction with other immunosuppressive drugs, patients were treated with an oral formulation of BDP. BDP was formulated as two separate oral dosage forms an immediate release (IR) tablet and an enteric coated (EC) tablet. 129 patients were enrolled and 67 patients were randomized to placebo and 62 to BDP, Patients were at least 10 days post allogeneic hematopoietic cell transplantation, had gastrointestinal symptoms consistent with Grade II GVHD, and had endoscopic evidence of GVHD. The diagnosis of GVHD was confirmed by biopsy of the intestine (esophagus, stomach, small intestine, or colon) or skin. After being diagnosed with GVHD, patients were started on standard prednisone therapy. Patients were administered 2 mg/kg/day or 1 mg/kg/day for 10 days as a starting dose. After 10 days at this initial dose, prednisone was tapered over 7 days, after which the patients were maintained on a maintenance physiologic replacement dose of prednisone of 0.0625 mg/kg/day or 0.125 mg/kg/day. Concurrently, patients received BDP at a dose of 2 mg four times daily, for a total dose of 8 mg, or placebo for a maximum of 50 days.
Patients were monitored at clinic visits for evidence of increase in symptoms of GVHD (primary treatment failure). The primary efficacy endpoint was the time to treatment failure through study day 50. Treatment failure was defined as a worsening or recurrence of GVHD of such degree as to require an increase in immunosuppressive therapy. A subject was defined as a treatment failure if the patient required prednisone or equivalent IV corticosteroids at doses higher than that specified in the protocol, in response to uncontrolled signs or symptoms of GVHD; or required additional immunosuppressant medications other than those permitted by the protocol in response to uncontrolled signs or symptoms of GVHD. The time to treatment failure was calculated as the number of days elapsed between the randomization date and the date on which the subject was first identified as a treatment failure by the investigator.
Secondary efficacy endpoints included: 1) the time to treatment failure through study day 80, 2) the proportion of subjects who experienced treatment failure by study days 10, 30, 50, 60, and 80, and 3) Karnofsky performance status scores.
(§3) The primary analysis of the primary and secondary efficacy endpoints was based on the intent-to-treat principle. The analysis of the primary efficacy endpoint was based on the Kaplan-Meier method and log-rank test stratified by source of allograft. Hypothesis tests of the primary and secondary efficacy endpoints were performed using a two-sided significance level of 0.05. No adjustments were made to the significance level for inferential tests of the secondary efficacy endpoints. All patients who received at least one dose of BDP or placebo were included in the assessment of safety.
The hazard ratio was estimated from a univariate Cox proportional hazards model. Placebo serves as the reference group.

[2] = system: graft versus leukemia effect (GVL); assay: Overall survival 200 days post-transplant in the same trial (Kaplan-Meier, Cox proportional hazards models)
Procedure: as §1, §2
(§4) Safety was primarily assessed based on the following: 1) cumulative systemic corticosteroid exposure, 2) the incidence and degree of HPA axis suppression in patients who had not experienced treatment failure by study day 50, 3) rates of treatment-emergent adverse events, and 4) the overall survival rate 200 days post-transplant.
as §3
Based on a univariate time-dependent Cox proportional hazards model, the risk of mortality during this period was 68% lower following the initiation of treatment with BDP when compared to no treatment (hazard ratio 0.32; 95% CI: 0.12, 0.87; p=0.0252). A multivariate Cox model was used to evaluate the effect of BDP while simultaneously accounting for selected competing causes of mortality after hematopoietic cell transplant. The competing causes of mortality included the subject's age and gender, intensity of the conditioning regimen (myeloablative, non-myeloablative), primary diagnosis, transplant source (bone marrow, peripheral blood stem cells), and degree of HLA match, with greater benefit seen in the patients receiving non-myeloabaltive pre-conditioning.
The hazard ratio for each variable was estimated from a multivariate Cox proportional hazards model.

[3] = Safety assessment in the same trial; settings: oral BDP 2 mg four times daily for 50 days plus prednisone induction vs placebo
Text: as §4, §3

[4] = Kaplan-Meier estimate, fraction, all randomized subjects

SMILES: CCC(=O)OCC(=O)[C@@]1(OC(=O)CC)[C@@H](C)C[C@H]2[C@@H]3CCC4=CC(=O)C=C[C@]4(C)[C@@]3(Cl)[C@@H](O)C[C@@]21C [BDP, beclomethasone dipropionate]
- Reduction of risk of treatment failure relative to placebo, 50-day study treatment period ([1]; 50-day study treatment period): 37%
- Increase of median time to treatment failure compared to placebo ([1]; 80-day study period): more than 28 days
- Reduction of risk of treatment failure relative to placebo, entire 80-day study period ([1]; 80-day study period): 44%
- Treatment failure rate by Study Day 50 [1, 4]: 0.31
- Treatment failure rate by Study Day 80 [1, 4]: 0.39
- Median time to treatment failure (95% CI), through Study Day 50 ([1]; all randomized subjects): Not achieved
- Median time to treatment failure (95% CI), through Study Day 80 ([1]; all randomized subjects): Not achieved
- Patients who met the treatment failure endpoint during the first 10 days of study treatment ([1]; first 10 days, all patients on high-dose prednisone): Eight
- Number with treatment failure, through Study Day 50 ([1]; intent-to-treat, BDP N = 62, 2 mg four times daily oral, with prednisone induction and taper): 18
- Number with treatment failure, through Study Day 80 ([1]; intent-to-treat, BDP N = 62, includes 30-day post-treatment observation period): 22
- Share of the total number of treatment failures that occurred within the first 10 days of randomization ([1]; prior to the prednisone taper): 44%
- Cumulative treatment failure rate by study day 50 ([1]; study day 50): 31%
- Cumulative treatment failure rate by study day 80 ([1]; study day 80): 39%
- Relative reduction in mortality at 200 days post transplant ([2]; 200 days post transplant): 69%
- Deaths with relapse of the underlying malignancy as primary cause, number of patients ([2]; 200 days post-transplant): 2 patients
- Deaths with relapse of the underlying malignancy as primary cause, share of group ([2]; 200 days post-transplant): 3%
- Hazard ratio, mortality, univariate time-dependent Cox model ([2]; 200 days post-transplant, BDP vs no treatment): 0.32
- Overall survival rate 200 days post-transplant ([2]; Kaplan-Meier estimate, fraction): 0.91
- Coefficient (bi), multivariate proportional hazards model for overall survival 200 days post-transplant ([2]; safety population): −1.155
- HR [exp(bi)], duration of overall survival 200 days post-transplant, multivariate Cox model ([2]; safety population, adjusted for competing causes of mortality): 0.32
- Lowering of risk of mortality following initiation of BDP compared to no treatment ([2]; univariate time-dependent Cox proportional hazards model, 200 days post-transplant): 68%
- Clinically significant toxicity [3]: without an increase in clinically significant toxicity
